Measurements from paper PMC7795425, “Synthesis and Biological Activity of Brassinosteroid Analogues with a Nitrogen-Containing Side Chain” (International Journal of Molecular Sciences, 2020).

How the values were obtained:
[1] = test system: Arabidopsis thaliana L. (Columbia ecotype, Col-0) seedlings; assay: Arabidopsis root sensitivity bioassay; assay type: in vivo; conditions: for root length, mean: 7-day-old seedlings; for inhibitory effect on Arabidopsis root growth: tested 0.1 to 10 nM, selected derivatives also 100 nM
Protocol: Several bioassays such as the first bean internode, root growth and rice lamina inclination have been developed to evaluate the growth-promoting activity of BR derivatives. In this work, the activity of new BR analogues was evaluated using the Arabidopsis root sensitivity test because of its simplicity and high sensitivity for BRs.. The characteristic effect of exogenously applied BRs on light-grown Arabidopsis is dose-dependent—BRs in higher concentrations cause inhibition of root growth; vice versa, low concentrations are stimulating. The results obtained for 24-epiBL, which was used as a positive control, and the BR derivatives are shown in Figure 2, Figure 3 and Figure S21. […] A similar trend was shown for dimethylammonium hydrochloride 22a and morpholinium hydrochloride 22e with a long side chain. For numerical values of the average, SD and p-value, see Table S2.
The biological activity of the new BRs derivatives was tested by an Arabidopsis sensitivity bioassay which was performed according to [28]. Briefly, seedlings of Arabidopsis thaliana L. (Columbia ecotype, Col-0) were stratified for 2 days at 4 °C and germinated on vertical half-strength Murashige and Skoog (1% w/v sucrose) agar at 22 °C in a 16 h/8 h light–dark cycle. The plates contained concentrations of 24-epiBL (as positive control) and BR derivatives ranging from 0.1 to 10 nM, respectively 100 nM (for selected derivatives only). After 7 days, roots were straightened on solid media plates and scanned with an Epson high-resolution scanner. The entire root length was measured with ImageJ (http://rsbweb.nih.gov/ij/). For each treatment, more than 15 seedlings were analyzed in two biological repeats, and p-values were calculated with the two-tailed Student t-test using Excel software.
(§1) Figure 2 Effect of selected brassinosteroid derivatives on the inhibition of Arabidopsis root length. Seven-day-old Arabidopsis thaliana seedlings (Columbia ecotype, Col-0) were treated with DMSO as control/24epiBL/BR short side chain derivatives; (A)—amides, (B)—amines, (C)—ammonium hydrochlorides. For each treatment, more than 15 seedlings were analyzed in two biological repeats. Error bars represent SD. Asterisks represent significant changes (t-test); * represents p-value < 0.05, in comparison to control.
as §1, with “Figure 3” for “Figure 2”, “control/24epiBL/BR long” for “control/24epiBL/BR short”, “(A)—amides, (B)—ammonium” for “(A)—amides, (B)—amines, (C)—ammonium”
Table S2: Data for figure 2, 3, and S21. P value <0.05(t-test), comparison to control.
control (mean ± SD) 16.3 ± 1.21
*only selected compounds were tested
mean(mm) SD t-test mean (mm) SD t-test mean (mm) SD t-test mean (mm) SD t-test
(1 picture or pasted object on this page, not shown here)

[2] = Calcein AM cytotoxicity assay, CEM; assay type: cell-based; conditions: human, CEM T-lymphoblastic leukemia cells, IC50 > 50 µM means inactive, read-out: Cytotoxic activity IC50
Protocol: (§2) The effect of the prepared BRs derivatives on the viability (in Calcein AM assays) of BJ human fibroblasts (as an example of a “normal” cell line) and human cancer cell lines of various histopathological origins, including: T-lymphoblastic leukemia CEM, breast carcinoma MCF7 and cervical carcinoma cell line HeLa, was also studied. Cells of all these lines were exposed to six 3-fold dilutions of each drug for 72 h prior to determination of cell survival. The IC50 (concentration leading to 50% inhibition of viability) values obtained from the Calcein AM cytotoxicity assay were calculated. […] All tested BR nitrogen-containing derivatives had no detectable activity, even when tested in concentrations of up to 50 µM.
(§3) The screening cell lines: T-lymphoblastic leukemia CEM; breast carcinoma MCF7 (estrogen-sensitive); cervical carcinoma cell line HeLa; and human foreskin fibroblasts BJ, were obtained from the American Type Culture Collection (Manassas, VA, USA). Cells were cultured in DMEM (Dulbecco’s Modified Eagle Medium, Sigma, St. Louis, MO, USA). Media used were supplemented with 10% fetal bovine serum, 2mM L-glutamine and 1% penicillin–streptomycin. The cell lines were maintained under standard cell culture conditions at 37 °C and 5% CO2 in a humid environment.
(§4) Cells were subcultured twice or three times a week using the standard trypsinization procedure. Cytotoxicity in cancer cell lines after 72 h was determined as described earlier. Control cultures were treated with DMSO alone, and the final concentration of DMSO in the mixture never exceeded 0.6%. Six serial 3-fold dilutions of the test substances were added at time zero in 20 μL aliquots to the microtiter plate wells and the highest final concentration in the wells was 50 μM.
(§5) Table S3: Cytotoxic activities, IC50 (µM/L)a, of compounds in three tumor and one normal fibroblast
(§6) Compound CEM MCF7 HeLa BJ
(§7) a The lowest concentration that kills 50% of cells.
(§8) b Increase of cell proliferation.

[3] = Calcein AM cytotoxicity assay, MCF7; assay type: cell-based; conditions: human, MCF7 breast carcinoma cells (estrogen-sensitive), MCF7, 72 h, IC50 > 50 µM means inactive, read-out: Cytotoxic activity IC50
Protocol: as §2, §3, §4, §5, §6, §7, §8

[4] = Calcein AM cytotoxicity assay, HeLa; assay type: cell-based; conditions: human, HeLa cervical carcinoma cells, IC50 > 50 µM means inactive, read-out: Cytotoxic activity IC50
Protocol: as §2, §3, §4, §5, §6, §7, §8

[5] = Calcein AM cytotoxicity assay, BJ; assay type: cell-based; conditions: human, BJ foreskin fibroblasts (normal cell line), IC50 > 50 µM means inactive, read-out: Cytotoxic activity IC50
Protocol: as §2, §3, §4, §5, §6, §7, §8

[6] = 100 nM (only selected compounds), control 14.61 ± 0.85

## C[C@H](CN1CCCC1)[C@H]1CC[C@H]2[C@@H]3CC(=O)[C@H]4C[C@H](O)[C@H](O)C[C@]4(C)[C@H]3CC[C@]12C [15c, (20S)-20-(pyrrolidin-1-ylmethyl)-2α,3α-dihydroxy-5α-pregnane-6-one]
[1]; 0.1 nM, control 16.3 ± 1.21
  root length, mean: 16.78 mm
[1]; 1 nM, control 16.3 ± 1.21
  root length, mean: 14.37 mm
[1]; 10 nM, control 16.3 ± 1.21
  root length, mean: 17.21 mm
[2]
  IC50 at 72 h: > 50 µM
[3]
  IC50 at 72 h: > 50 µM
[4]
  IC50 at 72 h: > 50 µM
[5]
  IC50 at 72 h: > 50 µM
other
  melting point: > 240 °C (dec.)

## C[C@H](CN1CCCCC1)[C@H]1CC[C@H]2[C@@H]3CC(=O)[C@H]4C[C@H](O)[C@H](O)C[C@]4(C)[C@H]3CC[C@]12C [15d, (20S)-20-(piperidin-1-ylmethyl)-2α,3α-dihydroxy-5α-pregnane-6-one]
[1]; 0.1 nM, control 16.3 ± 1.21
  root length, mean: 14.18 mm
[1]; 1 nM, control 16.3 ± 1.21
  root length, mean: 14.11 mm
[1]; 10 nM, control 16.3 ± 1.21
  root length, mean: 15.15 mm
[2]
  IC50 at 72 h: > 50 µM
[3]
  IC50 at 72 h: > 50 µM
[4]
  IC50 at 72 h: > 50 µM
[5]
  IC50 at 72 h: > 50 µM
other
  melting point: > 210 °C (dec.)

## C[C@H](CN1CCOCC1)[C@H]1CC[C@H]2[C@@H]3CC(=O)[C@H]4C[C@H](O)[C@H](O)C[C@]4(C)[C@H]3CC[C@]12C [15e, (20S)-20-(morpholin-4-ylmethyl)-2α,3α-dihydroxy-5α-pregnane-6-one]
[1]; 0.1 nM, control 16.3 ± 1.21
  root length, mean: 17.21 mm
[1]; 1 nM, control 16.3 ± 1.21
  root length, mean: 17.61 mm
[1]; 10 nM, control 16.3 ± 1.21
  root length, mean: 16.21 mm
[1]; [6]
  root length, mean: 13.731 mm
[2]
  IC50 at 72 h: > 50 µM
[3]
  IC50 at 72 h: > 50 µM
[4]
  IC50 at 72 h: > 50 µM
[5]
  IC50 at 72 h: > 50 µM
other
  melting point: > 210 °C (dec.)

## C[C@H]([C@@H](O)[C@H](O)C(=O)N(C)C)[C@H]1CC[C@H]2[C@@H]3CC(=O)[C@H]4C[C@H](O)[C@H](O)C[C@]4(C)[C@H]3CC[C@]12C [20a, N,N-dimethyl-(20S,22R,23S)-2α,3α,22,23-tetrahydroxy-6-oxo-5α-cholan-24-amide]
[1]; 0.1 nM, control 16.3 ± 1.21
  root length, mean: 16.13 mm
[1]; 1 nM, control 16.3 ± 1.21
  root length, mean: 14.67 mm
[1]; 10 nM, control 16.3 ± 1.21
  root length, mean: 14.18 mm
[1]; [6]
  root length, mean: 15.192 mm
[1]
  inhibitory effect on Arabidopsis root growth: weak inhibitory effect
[2]
  IC50 at 72 h: > 50 µM
[3]
  IC50 at 72 h: > 50 µM
[4]
  IC50 at 72 h: > 50 µM
[5]
  IC50 at 72 h: > 50 µM
other
  melting point: > 210 °C (dec.)

## CCN(CC)C(=O)[C@@H](O)[C@H](O)[C@@H](C)[C@H]1CC[C@H]2[C@@H]3CC(=O)[C@H]4C[C@H](O)[C@H](O)C[C@]4(C)[C@H]3CC[C@]12C [20b, N,N-diethyl-(20S,22R,23S)-2α,3α,22,23-tetrahydroxy-6-oxo-5α-cholan-24-amide]
[1]; 0.1 nM, control 16.3 ± 1.21
  root length, mean: 16.78 mm
[1]; 1 nM, control 16.3 ± 1.21
  root length, mean: 15.32 mm
[1]; 10 nM, control 16.3 ± 1.21
  root length, mean: 14.99 mm
[2]
  IC50 at 72 h: > 50 µM
[3]
  IC50 at 72 h: > 50 µM
[4]
  IC50 at 72 h: > 50 µM
[5]
  IC50 at 72 h: > 50 µM
other
  melting point: > 160 °C (dec.)

## C[C@H]([C@@H](O)[C@H](O)C(=O)N1CCCC1)[C@H]1CC[C@H]2[C@@H]3CC(=O)[C@H]4C[C@H](O)[C@H](O)C[C@]4(C)[C@H]3CC[C@]12C [20c, 1-((20S,22R,23S)-2α,3α,22,23-tetrahydroxy-6-oxo-5α-cholan-24-oyl)pyrrolidine]
[1]; 0.1 nM, control 16.3 ± 1.21
  root length, mean: 15.97 mm
[1]; 1 nM, control 16.3 ± 1.21
  root length, mean: 15.81 mm
[1]; 10 nM, control 16.3 ± 1.21
  root length, mean: 15.15 mm
[1]; [6]
  root length, mean: 14.873 mm
[1]
  inhibitory effect on Arabidopsis root growth: weak inhibitory effect
[2]
  IC50 at 72 h: > 50 µM
[3]
  IC50 at 72 h: > 50 µM
[4]
  IC50 at 72 h: > 50 µM
[5]
  IC50 at 72 h: > 50 µM
other
  melting point: > 200 °C (dec.)
